# Read-outs that look alike come from different tables or passages of the source.
# Tests used:
# Format in all cases: in vivo, human
# [1] = Clinical study in GD-3 patients: Compound 2 concentrations in plasma and CSF; conditions: 15 mg/day + imiglucerase; for AUC(0-t): read-out: AUC0-24 (mean ± SD); for Cmax: read-out: Cmax (mean ± SD)
# From the text: Patients 18 years of age or older with a clinical diagnosis of GD3 and documented deficiency of acid beta-glucosidase activity having received treatment with ERT for at least 3 years and with imiglucerase (Cerezyme) at a stable monthly dose for at least 6 months prior to enrollment were included in the study. Patients must have reached the following GD therapeutic goals: hemoglobin level of ≥11.0 g/dL for females and ≥12.0 g/dL for males; platelet count ≥100 000/mm3; spleen volume <10 multiples of normal (MN), or total splenectomy (provided the splenectomy occurred >3 years prior to randomization); liver volume <1.5 MN; and no bone crisis and free of symptomatic bone disease such as bone pain attributable to osteonecrosis and/or pathological fractures within the last year. Patients must have GD3 featuring oculomotor apraxia (supranuclear gaze palsy) characterized by a horizontal saccade abnormality.
# During the study patients were evaluated for safety and tolerability, CSF and plasma biomarkers (glucosylceramide, GL-1; glucosylsphingosine, lyso-GL1), pharmacokinetics, markers for systemic disease (spleen and liver volume measured by magnetic resonance imaging (MRI), platelet count, hemoglobin levels), indicia of interstitial lung disease (high resolution pulmonary computed tomography (CT)), and horizontal saccadic eye movement.
# A second interim analysis was performed when the first 6 patients had reached 52-weeks of treatment, as described above in section (A). This analysis included Patients 1-5 as described in section (A), as well as new Patient 6. All six patients had L444P (1448T/C) homozygous Gaucher phenotype.
# [2] = Study 1 Part 2: pharmacokinetics with and without a high-fat meal; conditions: healthy men, single oral 5 mg dose
# From the text: Study 1 was a 2-part single-center trial in healthy adult male volunteers.
# Part 1 of the study enrolled and randomized 55 healthy men (placebo, n=14; 2-, 5-, 15, 25-, 50, and 100-mg doses, n=6 each; 150-mg dose, n=5). Eight healthy men participated in Part 2.
# After a 7-day washout period, participants were crossed over to the other condition.
# [3] = Study 2: ascending repeated-dose pharmacokinetics in healthy volunteers; conditions: for AUC(0-t) / Cmax / Tmax / CL renal: both sexes, human, oral; for AUC(0-t) / Cmax / Tmax: plasma; for Tmax: read-out: tmax, median (range); for CL renal: urine and plasma
# [4] = system: GL-3, lyso-GL-3, GL-1 and GM3; experiment: Clinical study in Fabry disease patients: plasma and urine glycosphingolipids; conditions: 15 mg/day oral
# Description: A three-year open-label investigation of Compound 2 in young classic Fabry disease patients was conducted in order to evaluate the long-term safety, pharmacodynamics and exploratory efficacy of Compound 2 in adult male Fabry patients. Eleven subjects enrolled in the study, and seven subjects completed all aspects of the study. All subjects were males diagnosed with classic Fabry disease confirmed by genotype and residual alpha-galactosidase activity below detection levels (9 of the 11 had nonsense mutation in the GLA gene). All subjects had lyso-GL3 levels in plasma of at least 65 ng/mL and had no prior Fabry disease-specific treatment. The median age of subject was 24 years (range 19-37).
# Each sample was scored independently by 3 pathologists for the presence of GL-3 inclusions on a four-point scale, and rated as 0 (no/trace), 1 (mild), 2 (moderate), or 3 (severe) according to Eng et al., N. Engl. J. Med. 345:9-16 (2001). A single score per patient per time point was derived by taking the score rated by the majority of the three pathologists. If a majority score could not be derived, then the median score was used (resulting in some fractional scores). […] Pain scores and abdominal symptoms were analyzed at baseline and weeks 12, 26, 52, 104 and 156 using the SF-36 scoring protocol. […]
# [5] = system: GL-3 inclusions in superficial endothelial cell capillaries; experiment: Clinical study in Fabry disease patients: GL-3 inclusion volume fraction by electron microscopy; conditions: 15 mg/day oral
# From the text: In addition to scoring GL-3 skin inclusions by light microscopy, the fraction of the volume of endothelial cell cytoplasm occupied by GL-3 inclusions was estimated using point-counting of electron microscopic images by a masked reader. Images from at least 50 superficial endothelial cell capillaries were obtained using electron microscopy at 7500× magnification. Two-sided t tests were used to evaluate differences between baseline and post-treatment values at each time point.
# [6] = human, plasma, oral, plasma, Day 1 (N = 5)
# [7] = human, plasma, oral, plasma, Day 1 (N = 6)
smiles,measurement,setting,value
"CC(C)(NC(=O)O[C@@H]1CN2CCC1CC2)c1csc(-c2ccc(F)cc2)n1 [Compound 2, (S)-quinuclidin-3-yl 2-(2-(4-fluorophenyl)thiazol-4-yl)propan-2-ylcarbamate]",Crossing of the blood-brain barrier,[1],effectively cross the blood-brain barrier in all patients
same,Time at which steady state concentration is reached in plasma and CSF,[1],≤ 4 Week
same,Concentration in CSF 2-4 hours post dose (mean ± SD),[1]; Day 1 (N = 6),<LLOQ
same,Concentration in CSF 4 hours post dose (mean ± SD),[1]; Week 4 (N = 5),4.17 ± 0.83 ng/mL
same,Concentration in CSF 4 hours post dose (mean ± SD),[1]; Week 26 (N = 4),4.71 ± 2.50 ng/mL
same,tmax (median),"[1]; plasma, Day 1 (N = 6)",2.00 h
same,Tmax,"[1]; human, oral, plasma, Day 1 (N = 5), read-out: tmax (median)",2 h
same,AUC(0-t),[1]; [6],715 ± 225 ng·h/mL
same,Cmax,[1]; [6],48.2 ± 19.2 ng/mL
same,AUC(0-t),[1]; [7],729 ± 205 ng·h/mL
same,Cmax,[1]; [7],49.1 ± 17.3 ng/mL
same,Effect of a high-fat meal on exposure compared with fasting conditions,[2],no effect
same,Median tmax,[2]; fed or fasting,6.00 h
same,AUC(0-t),"[3]; 5 mg, healthy adults, 5 mg once daily, Day 1 (N = 9), read-out: AUC0-24, Geometric mean (CV)",292 ng·h/mL
same,AUC(0-t),"[3]; 5 mg, healthy adults, 5 mg once daily, Day 1 (N = 9), read-out: AUC0-24, Mean (SD)",296 ng·h/mL
same,Cmax,"[3]; 5 mg, healthy adults, 5 mg once daily, Day 1 (N = 9), read-out: Cmax, Geometric mean (CV)",18.2 ng/mL
same,Cmax,"[3]; 5 mg, healthy adults, 5 mg once daily, Day 1 (N = 9), read-out: Cmax, Mean (SD)",18.5 ng/mL
same,Tmax,"[3]; 5 mg, healthy adults, 5 mg once daily, Day 1 (N = 9)",5 h
same,AUC(0-t),"[3]; 5 mg, healthy adults, 5 mg once daily, Day 14 (N = 9), read-out: AUC0-24, Geometric mean (CV)",632 ng·h/mL
same,AUC(0-t),"[3]; 5 mg, healthy adults, 5 mg once daily, Day 14 (N = 9), read-out: AUC0-24, Mean (SD)",642 ng·h/mL
same,Cmax,"[3]; 5 mg, healthy adults, 5 mg once daily, Day 14 (N = 9), read-out: Cmax, Geometric mean (CV)",36.5 ng/mL
same,Cmax,"[3]; 5 mg, healthy adults, 5 mg once daily, Day 14 (N = 9), read-out: Cmax, Mean (SD)",37 ng/mL
same,Tmax,"[3]; 5 mg, healthy adults, 5 mg once daily, Day 14 (N = 9)",3 h
same,AUC(0-t),"[3]; 10 mg, healthy adults, 10 mg once daily, Day 1 (N = 9), read-out: AUC0-24, Geometric mean (CV)",623 ng·h/mL
same,AUC(0-t),"[3]; 10 mg, healthy adults, 10 mg once daily, Day 1 (N = 9), read-out: AUC0-24, Mean (SD)",635 ng·h/mL
same,Cmax,"[3]; 10 mg, healthy adults, 10 mg once daily, Day 1 (N = 9), read-out: Cmax, Geometric mean (CV)",37.8 ng/mL
same,Cmax,"[3]; 10 mg, healthy adults, 10 mg once daily, Day 1 (N = 9), read-out: Cmax, Mean (SD)",38.5 ng/mL
same,Tmax,"[3]; 10 mg, healthy adults, 10 mg once daily, Day 1 (N = 9)",3 h
same,AUC(0-t),"[3]; 10 mg, healthy adults, 10 mg once daily, Day 14 (N = 9), read-out: AUC0-24, Geometric mean (CV)",1490 ng·h/mL
same,AUC(0-t),"[3]; 10 mg, healthy adults, 10 mg once daily, Day 14 (N = 9), read-out: AUC0-24, Mean (SD)",1550 ng·h/mL
same,Cmax,"[3]; 10 mg, healthy adults, 10 mg once daily, Day 14 (N = 9), read-out: Cmax, Geometric mean (CV)",86 ng/mL
same,Cmax,"[3]; 10 mg, healthy adults, 10 mg once daily, Day 14 (N = 9), read-out: Cmax, Mean (SD)",89.7 ng/mL
same,Tmax,"[3]; 10 mg, healthy adults, 10 mg once daily, Day 14 (N = 9)",2 h
same,AUC(0-t),"[3]; 20 mg, healthy adults, 20 mg once daily, Day 1 (N = 9), read-out: AUC0-24, Geometric mean (CV)",1080 ng·h/mL
same,AUC(0-t),"[3]; 20 mg, healthy adults, 20 mg once daily, Day 1 (N = 9), read-out: AUC0-24, Mean (SD)",1100 ng·h/mL
same,Cmax,"[3]; 20 mg, healthy adults, 20 mg once daily, Day 1 (N = 9), read-out: Cmax, Geometric mean (CV)",66.5 ng/mL
same,Cmax,"[3]; 20 mg, healthy adults, 20 mg once daily, Day 1 (N = 9), read-out: Cmax, Mean (SD)",68 ng/mL
same,Tmax,"[3]; 20 mg, healthy adults, 20 mg once daily, Day 1 (N = 9)",3.07 h
same,AUC(0-t),"[3]; 20 mg, healthy adults, 20 mg once daily, Day 14 (N = 9), read-out: AUC0-24, Geometric mean (CV)",2340 ng·h/mL
same,AUC(0-t),"[3]; 20 mg, healthy adults, 20 mg once daily, Day 14 (N = 9), read-out: AUC0-24, Mean (SD)",2420 ng·h/mL
same,Cmax,"[3]; 20 mg, healthy adults, 20 mg once daily, Day 14 (N = 9), read-out: Cmax, Geometric mean (CV)",137 ng/mL
same,Cmax,"[3]; 20 mg, healthy adults, 20 mg once daily, Day 14 (N = 9), read-out: Cmax, Mean (SD)",142 ng/mL
same,Tmax,"[3]; 20 mg, healthy adults, 20 mg once daily, Day 14 (N = 9)",3 h
same,CL renal,"[3]; 5 mg, healthy adults, 5 mg once daily, Day 14 (N = 9), read-out: CLR(0-24), Mean (SD) (converted)",25.8 mL/min
same,CL renal,"[3]; 10 mg, healthy adults, 10 mg once daily, Day 14 (N = 9), read-out: CLR(0-24), Geometric mean (CV) (converted)",23.3 mL/min
same,CL renal,"[3]; 10 mg, healthy adults, 10 mg once daily, Day 14 (N = 9), read-out: CLR(0-24), Mean (SD) (converted)",24.8 mL/min
same,CL renal,"[3]; 20 mg, healthy adults, 20 mg once daily, Day 14 (N = 9), read-out: CLR(0-24), Geometric mean (CV) (converted)",33.3 mL/min
same,CL renal,"[3]; 20 mg, healthy adults, 20 mg once daily, Day 14 (N = 9), read-out: CLR(0-24), Mean (SD) (converted)",34.5 mL/min
same,"CLss/F, Geometric mean (CV)","[3]; healthy adults, 5 mg once daily, Day 14 (N = 9)",5.9 (19.5) L/h
same,"CLss/F, Geometric mean (CV)","[3]; healthy adults, 10 mg once daily, Day 14 (N = 9)",5.0 (24.4) L/h
same,"CLss/F, Geometric mean (CV)","[3]; healthy adults, 20 mg once daily, Day 14 (N = 9)",6.4 (25.8) L/h
same,Ctrough values over time,"[3]; healthy adults, 5, 10, or 20 mg once daily for 14 days",reached a plateau after Day 5
same,Time to steady state,"[3]; healthy adults, repeated once-daily doses from 5-20 mg",≤ 5 days
same,"Urine GL-3 (mg per mmol urine creatinine), change from baseline",[4]; 26 weeks (n = 8),-0.25 mg/mmol
same,"Plasma GL-1, change from baseline",[4]; 26 weeks (n = 9),-3.26 µg/mL
same,"Plasma GL-3, change from baseline",[4]; 26 weeks (n = 9),-3.62 µg/mL
same,"Plasma GM3, change from baseline",[4]; 26 weeks (n = 9),-10.77 µg/mL
same,"Plasma lyso-GL-3, change from baseline",[4]; 26 weeks (n = 9),-30.99 ng/mL
same,"Plasma GL-1, change from baseline",[4]; 52 weeks (n = 7),-3.58 µg/mL
same,"Plasma GL-3, change from baseline",[4]; 52 weeks (n = 7),-5.06 µg/mL
same,"Plasma GM3, change from baseline",[4]; 52 weeks (n = 7),-8.84 µg/mL
same,"Plasma lyso-GL-3, change from baseline",[4]; 52 weeks (n = 7),-37.10 ng/mL
same,"Urine GL-3 (mg per mmol urine creatinine), change from baseline",[4]; 52 weeks (n = 7),-0.20 mg/mmol
same,"Plasma GL-1, change from baseline",[4]; 104 weeks (n = 7),-3.70 µg/mL
same,"Plasma GL-3, change from baseline",[4]; 104 weeks (n = 7),-6.32 µg/mL
same,"Plasma GM3, change from baseline",[4]; 104 weeks (n = 7),-9.92 µg/mL
same,"Plasma lyso-GL-3, change from baseline",[4]; 104 weeks (n = 7),-39.84 ng/mL
same,"Urine GL-3 (mg per mmol urine creatinine), change from baseline",[4]; 104 weeks (n = 7),-0.18 mg/mmol
same,"Plasma GL-1, change from baseline",[4]; 156 weeks (n = 7),-3.23 µg/mL
same,"Plasma GL-3, change from baseline",[4]; 156 weeks (n = 7),-6.97 µg/mL
same,"Plasma GM3, change from baseline",[4]; 156 weeks (n = 7),-8.12 µg/mL
same,"Plasma lyso-GL-3, change from baseline",[4]; 156 weeks (n = 7),-48.13 ng/mL
same,"Urine GL-3 (mg per mmol urine creatinine), change from baseline",[4]; 156 weeks (n = 7),-0.18 mg/mmol
same,Plasma GL-3 levels,[4]; after 156 weeks,1.90 µg/mL
same,Plasma GL-3 reduction compared to agalsidase beta,[4]; at 104 weeks (p=0.0351) and 156 weeks (p=0.0081),significantly greater
same,Drop in mean plasma GL-1 levels,[4]; over the 156-week study,69%
same,Drop in mean plasma GL-3 levels,[4]; over the 156-week study,77%
same,Drop in mean plasma GM3 levels,[4]; over the 156-week study,60%
same,Drop in mean plasma lyso-GL3 levels,[4]; over the 156-week study,52%
same,Volume fraction (volume of inclusions/total cytoplasmic volume),[5]; 3 months (N = 9),0.29 ± 0.06
same,"Volume fraction, Change from baseline","[5]; 3 months (N = 9), P 0.74",−1.9%
same,Volume fraction (volume of inclusions/total cytoplasmic volume),[5]; 3 years (N = 6),0.18 ± 0.03
same,"Volume fraction, Change from baseline","[5]; 3 years (N = 6), P 0.001",−38.7%
same,Volume fraction (volume of inclusions/total cytoplasmic volume),[5]; 6 months (N = 8),0.23 ± 0.04
same,"Volume fraction, Change from baseline","[5]; 6 months (N = 8), P 0.001",−21.1%
